Assay results from patent US20120207742A1 (priority 2011, published 2012).

Test system: DU-145 cells
Type: cell-based, human

Compound: C=C1[C@@H](C)[C@H]2[C@H](Cc3ccccc3)NC(=O)[C@]23[C@H](OC(C)=O)/C=C/[C@@](C)(O)C(=O)[C@@H](C)C/C=C/[C@H]3[C@@H]1O [Cytochalasin-D]
- effect on cell migration: did not migrate
